Source: patent US8299267B2, “(3-hydroxy-4-amino-butan-2-yl) -3- (2-thiazol-2-yl-pyrrolidine-1-carbonyl) benzamide derivatives and related compounds as beta-secretase inhibitors for treating” (CoMentis, Inc., priority 2007, dated 2012)

Experiments:
[1] = system: Aβ production in Chinese hamster ovary cells that over-express human APP695 with the London and Swedish mutations; experiment: Cellular Aβ IC50 determination (Aβ40 sandwich ELISA); type: cell-based; conditions: Cricetulus griseus; Aβ40 in CHO cells over-expressing human APP695, 24 h incubation
Description: The potency of compounds against memapsin 2 activity was determined in a cellular assay of Aβ production. […] Chinese hamster ovary cells that over-express human APP695 with the London and Swedish mutations were seeded in multi-well plates at 10% confluency. Compounds are dissolved in DMSO to concentrations near 1 mM, and diluted into culture media to a final concentration near 4 μM (final 0.4% DMSO). Compounds were diluted serially and applied to cells in multi-well plates 48 h after seeding. Incubation was continued in 5% CO2 at 37° C. for 24 h. Aliquots were removed and assayed for Aβ40 content using a sandwich ELISA (BioSource International). Amount of Aβ40 over the range of concentration of compounds, relative to control incubations, were fit to a 4-parameter IC50 model.

[2] = biological target: memapsin 2 (Homo sapiens, UniProt P56817); experiment: Inhibition of memapsin 2 beta-secretase activity toward fluorogenic substrate FS-2; type: biochemical; conditions: memapsin 2, pH 4, 37° C., 20 minutes pre-incubation, substrate FS-2; read-out: M2Ki
Sequence of memapsin 2 (P56817 46-501): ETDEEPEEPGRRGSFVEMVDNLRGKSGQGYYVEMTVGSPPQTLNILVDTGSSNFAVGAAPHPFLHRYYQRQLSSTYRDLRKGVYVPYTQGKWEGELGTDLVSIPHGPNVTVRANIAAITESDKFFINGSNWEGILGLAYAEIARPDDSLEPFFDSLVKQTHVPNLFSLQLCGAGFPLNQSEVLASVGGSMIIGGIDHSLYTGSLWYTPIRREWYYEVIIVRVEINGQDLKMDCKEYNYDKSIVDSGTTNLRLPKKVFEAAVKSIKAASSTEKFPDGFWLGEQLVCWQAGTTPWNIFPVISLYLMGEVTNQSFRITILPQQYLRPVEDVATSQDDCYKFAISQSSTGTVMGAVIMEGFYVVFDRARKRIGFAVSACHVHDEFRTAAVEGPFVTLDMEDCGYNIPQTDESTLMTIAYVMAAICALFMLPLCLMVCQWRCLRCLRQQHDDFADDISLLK
Description: Potency of compounds were determined by measurement of their inhibition of memapsin 2 activity toward a fluorescent substrate. Kinetic inhibition experiments were performed using the procedure as described in Ermolieff, et al. (Biochemistry 39:12450-12456 (2000), the teachings of which are incorporated hereby in their entirety). Briefly, assays were performed at pH 4, 37° C., by pre-incubation of memapsin 2 enzyme with compound for 20 minutes. Activity measurements were initiated by addition of a fluorogenic substrate FS-2 (Bachem Americas, Torrance, Calif.) MCA-SEVNLDAEFK-DNP (SEQ ID NO.: 2). The substrate was derived from 10 amino acids of the human amyloid precursor protein (APP), with the Swedish variant amino acids at the beta-secretase cleavage site. The terminal amino acid was modified from arginine to lysine to facilitate derivatization with a functional group for detection by autofluorescence. The amino acid sequence of the “core” peptide of the substrate is SEVNLDAEFK (SEQ ID NO.: 3). The amino terminus was derivatized with (7-methoxycoumarin-4-yl)acetyl (MCA), and the epsilon amine of the lysine side chain of the terminal residue (K in sequence SEVNLDAEFK (SEQ ID NO.: 4)) was derivatized with 2,4-dinitrophenyl (DNP).

Compound	IC50 [1]	Ki [2]
COC[C@H]1CCCN1C(=O)c1cc(C)cc(C(=O)N[C@@H](Cc2ccccc2)[C@H](O)CNCc2cccc(OC)c2)c1 [Compound 3, N-((2S,3R)-3-hydroxy-4-(3-methoxybenzylamino)-1-phenylbutan-2-yl)-3-((R)-2-(methoxymethyl)pyrrolidine-1-carbonyl)-5-methylbenzamide]	< 300 nM	< 100 nM
COc1cccc(CNC[C@@H](O)[C@H](Cc2ccccc2)NC(=O)c2cccc(C(=O)N3CCCC[C@@H]3c3nc(C)cs3)c2)c1 [Compound 5, N-((2S,3R)-3-hydroxy-4-(3-methoxybenzylamino)-1-phenylbutan-2-yl)-3-((R)-2-(4-methylthiazol-2-yl)piperidine-1-carbonyl)benzamide]	> 501 nM	< 100 nM
COc1cccc(CNC[C@@H](O)[C@H](Cc2ccccc2)NC(=O)c2cccc(C(=O)N3CSC[C@@H]3c3nc(C)cs3)c2)c1 [Compound 8, N-((2S,3R)-3-hydroxy-4-(3-methoxybenzylamino)-1-phenylbutan-2-yl)-3-((R)-4-(4-methylthiazol-2-yl)thiazolidine-3-carbonyl)benzamide]	< 300 nM	< 100 nM
COc1cccc(CNC[C@@H](O)[C@H](Cc2ccccc2)NC(=O)c2cc(OC)cc(C(=O)N3CCC[C@@H]3c3nc(C)cs3)c2)c1 [Compound 11, N-((2S,3R)-3-hydroxy-4-(3-methoxybenzylamino)-1-phenylbutan-2-yl)-3-methoxy-5-((R)-2-(4-methylthiazol-2-yl)pyrrolidine-1-carbonyl)benzamide]	< 300 nM	< 100 nM
COc1cc(C(=O)N[C@@H](Cc2ccccc2)[C@H](O)CNCc2cccc(C(C)(C)C)c2)cc(C(=O)N2CCC[C@@H]2c2nc(C)cs2)c1 [Compound 16, N-((2S,3R)-4-(3-tert-butylbenzylamino)-3-hydroxy-1-phenylbutan-2-yl)-3-methoxy-5-((R)-2-(4-methylthiazol-2-yl)pyrrolidine-1-carbonyl)benzamide]	< 300 nM	< 100 nM
Cc1csc([C@H]2CCCN2C(=O)c2cccc(C(=O)N[C@@H](Cc3ccccc3)[C@H](O)CNCc3cccc(Cl)c3)c2)n1 [Compound 17, N-((2S,3R)-4-(3-chlorobenzylamino)-3-hydroxy-1-phenylbutan-2-yl)-3-((R)-2-(4-methylthiazol-2-yl)pyrrolidine-1-carbonyl)benzamide]	< 300 nM	< 100 nM
COc1cc(C(=O)N[C@@H](Cc2ccccc2)[C@H](O)CNCc2cccc(Cl)c2)cc(C(=O)N2CCC[C@@H]2c2nc(C)cs2)c1 [Compound 18, N-((2S,3R)-4-(3-chlorobenzylamino)-3-hydroxy-1-phenylbutan-2-yl)-3-methoxy-5-((R)-2-(4-methylthiazol-2-yl)pyrrolidine-1-carbonyl)benzamide]	< 300 nM	< 100 nM
Cc1csc([C@H]2CCCN2C(=O)c2cccc(C(=O)N[C@@H](Cc3ccccc3)[C@H](O)CNCc3cc(C(C)C)on3)c2)n1 [Compound 106, N-((2S,3R)-3-hydroxy-4-((5-isopropylisoxazol-3-yl)methylamino)-1-phenylbutan-2-yl)-3-((R)-2-(4-methylthiazol-2-yl)pyrrolidine-1-carbonyl)benzamide]		< 100 nM
Cc1coc([C@H]2CCCN2C(=O)c2cccc(C(=O)N[C@@H](Cc3ccccc3)[C@H](O)CNC3CCCCC3)c2)n1 [Compound 107, N-((2S,3R)-4-(cyclohexylamino)-3-hydroxy-1-phenylbutan-2-yl)-3-((R)-2-(4-methyloxazol-2-yl)pyrrolidine-1-carbonyl)benzamide]		> 201 nM
C=C(C)c1cccc(CNC[C@@H](O)[C@H](Cc2ccccc2)NC(=O)c2cc(C)cc(C(=O)N3CCC[C@@H]3c3nc(C)co3)c2)c1 [Compound 108, N-((2S,3R)-3-hydroxy-1-phenyl-4-(3-(prop-1-en-2-yl)benzylamino)butan-2-yl)-3-methyl-5-((R)-2-(4-methyloxazol-2-yl)pyrrolidine-1-carbonyl)benzamide]		< 100 nM
CCn1cc(CNC[C@@H](O)[C@H](Cc2ccccc2)NC(=O)c2cccc(C(=O)N3CCC[C@@H]3c3nc(C)co3)c2)cn1 [Compound 109, N-((2S,3R)-4-((1-ethyl-1H-pyrazol-4-yl)methylamino)-3-hydroxy-1-phenylbutan-2-yl)-3-((R)-2-(4-methyloxazol-2-yl)pyrrolidine-1-carbonyl)benzamide]		101 to 200 nM
CCn1cc(CNC[C@@H](O)[C@H](Cc2ccccc2)NC(=O)c2cc(C)cc(C(=O)N3CCC[C@@H]3c3nc(C)co3)c2)cn1 [Compound 110, N-((2S,3R)-4-((1-ethyl-1H-pyrazol-4-yl)methylamino)-3-hydroxy-1-phenylbutan-2-yl)-3-methyl-5-((R)-2-(4-methyloxazol-2-yl)pyrrolidine-1-carbonyl)benzamide]		< 100 nM
Cc1coc([C@H]2CCCN2C(=O)c2cccc(C(=O)N[C@@H](Cc3ccccc3)[C@H](O)CNCc3cncc(C(C)(C)C)c3)c2)n1 [Compound 111, N-((2S,3R)-4-((5-tert-butylpyridin-3-yl)methylamino)-3-hydroxy-1-phenylbutan-2-yl)-3-((R)-2-(4-methyloxazol-2-yl)pyrrolidine-1-carbonyl)benzamide]		< 100 nM
Cc1cc(C(=O)N[C@@H](Cc2ccccc2)[C@H](O)CNCc2cncc(C(C)(C)C)c2)cc(C(=O)N2CCC[C@@H]2c2nc(C)co2)c1 [Compound 112, N-((2S,3R)-4-((5-tert-butylpyridin-3-yl)methylamino)-3-hydroxy-1-phenylbutan-2-yl)-3-methyl-5-((R)-2-(4-methyloxazol-2-yl)pyrrolidine-1-carbonyl)benzamide]		< 100 nM
Cc1cc(C(=O)N[C@@H](Cc2ccccc2)[C@H](O)CNCc2cncc(C(C)(F)F)c2)cc(C(=O)N2CCC[C@@H]2c2nc(C)co2)c1 [Compound 113, N-((2S,3R)-4-((5-(1,1-difluoroethyl)pyridin-3-yl)methylamino)-3-hydroxy-1-phenylbutan-2-yl)-3-methyl-5-((R)-2-(4-methyloxazol-2-yl)pyrrolidine-1-carbonyl)benzamide]		< 100 nM
Cc1coc([C@H]2CCCN2C(=O)c2cccc(C(=O)N[C@@H](Cc3ccccc3)[C@H](O)CNCc3cccc(OC(F)(F)F)c3)c2)n1 [Compound 114, N-((2S,3R)-3-hydroxy-1-phenyl-4-(3-(trifluoromethoxy)benzylamino)butan-2-yl)-3-((R)-2-(4-methyloxazol-2-yl)pyrrolidine-1-carbonyl)benzamide]		< 100 nM
Cc1cc(C(=O)N[C@@H](Cc2ccccc2)[C@H](O)CNCc2cccc(OC(F)(F)F)c2)cc(C(=O)N2CCC[C@@H]2c2nc(C)co2)c1 [Compound 115, N-((2S,3R)-3-hydroxy-1-phenyl-4-(3-(trifluoromethoxy)benzylamino)butan-2-yl)-3-methyl-5-((R)-2-(4-methyloxazol-2-yl)pyrrolidine-1-carbonyl)benzamide]		< 100 nM
Cc1cc(C(=O)N[C@@H](Cc2ccccc2)[C@H](O)CNCc2cncc(C(C)(F)F)c2)cc(C(=O)N2CCC[C@@H]2c2nc(C)cs2)c1 [Compound 116, N-((2S,3R)-4-((5-(1,1-difluoroethyl)pyridin-3-yl)methylamino)-3-hydroxy-1-phenylbutan-2-yl)-3-methyl-5-((R)-2-(4-methylthiazol-2-yl)pyrrolidine-1-carbonyl)benzamide]		< 100 nM
